Results published in patent US11242511B2, “Cytoplasmic protein complex comprising a kinase substrate sensor, cells comprising the complex, and associated detection methods” (VIB VZW, priority 2011, dated 2022).

What was measured:
[1] = molecular target: T1, EFHA1 (which binds to Tyk2(C) itself) (Homo sapiens, UniProt Q8IYU8); assay: Tyk2(C) kinase substrate sensor luciferase reporter assay, EFHA1 control interaction; type: cell-based; details: HEK293-T cells, pMet7-HA-Tyk2(C)-p53(N)+pMG1-EFHA1; 0-3333 nM; FIG. 4
T1 construct: expressed in transfected cells; host or cells: HEK293-T
T1 sequence (Q8IYU8 1-434): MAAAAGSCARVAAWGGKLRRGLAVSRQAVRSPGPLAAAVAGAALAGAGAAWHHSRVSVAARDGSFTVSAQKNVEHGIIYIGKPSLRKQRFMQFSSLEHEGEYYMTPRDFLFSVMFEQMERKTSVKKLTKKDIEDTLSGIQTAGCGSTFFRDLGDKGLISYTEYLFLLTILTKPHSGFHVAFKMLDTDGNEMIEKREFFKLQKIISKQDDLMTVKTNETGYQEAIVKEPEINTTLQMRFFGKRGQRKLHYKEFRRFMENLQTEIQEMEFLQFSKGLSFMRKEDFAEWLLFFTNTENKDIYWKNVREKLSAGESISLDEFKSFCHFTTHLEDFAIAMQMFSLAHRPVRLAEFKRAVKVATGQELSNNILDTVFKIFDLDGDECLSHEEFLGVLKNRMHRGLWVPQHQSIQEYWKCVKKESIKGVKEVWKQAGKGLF

[2] = tested on: Tyk2(R1027A); assay: Imidazole-inducible version of the assay, Tyk2(R1027A)-RTp66 fusion, luciferase reporter; type: cell-based, human; details: HEK293-T cells, 0.5-50 mM imidazole
Method: (§1) Transfections were carried out using a standard calcium phosphate method. HEK293-T cells were seeded in black tissue-culture treated 96-well plates at 10,000 cells/well in 100 μl culture medium (DMEM supplemented with 10% FCS). Twenty-four hours later, plasmid DNA mixes were prepared that contained plasmids encoding fusion proteins with the first and second interacting proteins and reporter plasmids. The DNA was supplemented with 10 μl 2.5M CaCl2) and double distilled water to a final volume of 100 μl. This mixture was added dropwise to 100 μl 2×HeBS buffer (280 mM NaCl, 1.5 mM Na2HPO4, 50 mM Hepes; pH 7.05) while vigorously vortexing. After incubation at room temperature for 15 minutes to allow DNA precipitates to form, the solution was added to the cells at […] Cells were incubated at 37° C., 8% CO2. Forty-eight hours after transfection, luciferase activity was measured using the Luciferase Assay System kit (Promega) on a TopCount luminometer (Perkin-Elmer). Each transfection was done in triplicate and the average of the luciferase activity readings was used in the calculations.
(§2) A Nutlin-3 (Sigma) stock solution of 20 mM in DMSO was diluted in culture medium and added to the cells 24 hours after transfection. Imidazole (Sigma) diluted in culture medium was added to the cells 24 hours after transfection. […]

[3] = tested on: Tyk2(C); assay: Imidazole treatment of the constitutive Tyk2(C)-RTp66 fusion assay, luciferase reporter; type: cell-based, human; details: HEK293-T cells, pMet7-HA-Tyk2(C)-RTp66; 0.5-50 mM imidazole
Method: as §1, §2

COc1ccc(C2=N[C@@H](c3ccc(Cl)cc3)[C@@H](c3ccc(Cl)cc3)N2C(=O)N2CCNC(=O)C2)c(OC(C)C)c1 [Nutlin-3]
signal corresponding to the interaction with EFHA1 [1]: unaffected

c1c[nH]cn1 [imidazole]
background signal, Tyk2 fusion construct with unfused gp130 fragment (pMG1) ([2]; Tyk2 fusion construct + pMG1): unaffected
maximal imidazole-dependent induction of the signal (interaction between HIV RTp66 and RTp51) compared to untreated cells ([2]; pMet7-HA-Tyk2(R1027A)-RTp66+pMG2-RTp51, added 24 hours after transfection): 36 fold
imidazole regulation of the signal in cells transfected with the Tyk2(C) fusion [3]: did not exhibit any imidazole regulation
